One assay has as its target T1, hP2X3 (Homo sapiens, UniProt P56373).
T1 construct: host or cells: HEK (hP2X3-HEK)
T1 sequence (P56373 1-397): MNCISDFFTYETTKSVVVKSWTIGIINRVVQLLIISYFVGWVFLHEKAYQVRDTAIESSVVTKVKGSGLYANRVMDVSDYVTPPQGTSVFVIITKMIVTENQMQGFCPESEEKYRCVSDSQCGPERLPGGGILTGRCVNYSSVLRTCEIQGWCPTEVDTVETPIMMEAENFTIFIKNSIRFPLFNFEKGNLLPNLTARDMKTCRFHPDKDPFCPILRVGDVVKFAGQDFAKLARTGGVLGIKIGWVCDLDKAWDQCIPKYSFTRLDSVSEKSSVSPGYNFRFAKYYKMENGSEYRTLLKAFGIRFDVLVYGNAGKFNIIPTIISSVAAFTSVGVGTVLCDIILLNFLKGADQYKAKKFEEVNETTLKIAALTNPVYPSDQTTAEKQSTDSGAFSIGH
The experiment in a line: FLIPR intracellular calcium assay, hP2X3. The assay is classed as cell-based. The following applies: human P2X3-HEK cells, agonist at EC75. A digest of the protocol: (§1)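 HEK (hP2X3) or tetracycline-inducible TRex293 (hP2X2/3) cells loaded with Calcium 4 dye, then given 11-point half-log compound dilutions for 15 min at room temperature in HBSS/HEPES, pH 7.4, with 1.8 mM CaCl2. Cells challenged with agonist at EC75; IC50 derived from fluorescence inhibition versus no-compound wells.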
For orientation: A change in cytosolic calcium serves as a functional read-out for many receptors and channels.

The next assay addresses T2, hP2X2/3 (Homo sapiens, UniProt P56373+Q9UBL9).
T2 construct: host or cells: TRex293 (hP2X2/3-TRex293), doxycycline-induced
T2 sequence (P56373 1-397): T1 sequence (P56373 1-397)
T2 sequence (Q9UBL9 1-471): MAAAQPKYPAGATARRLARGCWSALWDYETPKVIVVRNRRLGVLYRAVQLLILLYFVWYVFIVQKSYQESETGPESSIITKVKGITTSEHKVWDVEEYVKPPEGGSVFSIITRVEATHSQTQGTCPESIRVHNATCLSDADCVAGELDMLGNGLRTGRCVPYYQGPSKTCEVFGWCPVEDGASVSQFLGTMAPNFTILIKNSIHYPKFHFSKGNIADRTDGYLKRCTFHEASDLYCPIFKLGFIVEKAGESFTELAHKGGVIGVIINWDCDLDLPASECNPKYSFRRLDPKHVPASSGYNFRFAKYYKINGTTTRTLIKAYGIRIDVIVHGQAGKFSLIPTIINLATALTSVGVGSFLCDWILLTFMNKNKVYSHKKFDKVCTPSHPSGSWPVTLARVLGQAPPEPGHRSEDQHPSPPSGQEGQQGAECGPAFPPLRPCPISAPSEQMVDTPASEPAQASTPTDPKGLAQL
The assay is described as follows: FLIPR intracellular calcium assay, hP2X2/3. The assay is classed as cell-based. The following applies: human P2X2/3-TRex293 cells, agonist at EC75. The essentials:
as §1

“And” between values parts separate entries of the source, which are not always exact repeats. Identical values can stand only once.

Turning to `CCC(C)n1nc(Br)c2nc(N3CCN(C(C)=O)CC3)nc(N[C@H](C)c3cnc4ccccc4c3)c21` (stereo partly drawn) [Example 90, 1-{4-[3-Bromo-1-sec-butyl-7-((R)-1-quinolin-3-yl-ethylamino)-1H-pyrazolo[4,3-d]pyrimidin-5-yl]-piperazin-1-yl}-ethanone], the results for the half-inhibitory concentration (IC50) on hP2X3 and at hP2X2/3 were 1 to 100 nM and 1000 to 10000 nM, respectively.

Turning to `CCC(C)n1nc(C#N)c2nc(N3CCN(C(C)=O)CC3)nc(N[C@H](C)c3cnc4ccccc4c3)c21` (stereo partly drawn) [Example 91, 5-(4-Acetyl-piperazin-1-yl)-1-sec-butyl-7-((R)-1-quinolin-3-yl-ethylamino)-1H-pyrazolo[4,3-d]pyrimidine-3-carbonitrile], the IC50 (usually the point on the concentration scale where inhibition reaches its midpoint) at hP2X3 was in the range of 1 to 100 nM; at hP2X2/3 it was 1000 to 10000 nM.

As for `CCC(C)n1nc(C2CC2)c2nc(N3CCN(C(C)=O)CC3)nc(N[C@H](C)c3cnc4ccccc4c3)c21` (stereo partly drawn) [Example 93, 1-{4-[1-sec-Butyl-3-cyclopropyl-7-((R)-1-quinolin-3-yl-ethylamino)-1H-pyrazolo[4,3-d]pyrimidin-5-yl]-piperazin-1-yl}-ethanone], the IC50 at hP2X3 lay within 1 to 100 nM; at hP2X2/3, 1000 to 10000 nM.

As to `CC(=O)N1CCN(c2nc(NC(C)c3cnc4ccccc4c3)c3nn(C(C)C)c(Br)c3n2)CC1` (stereo not shown) [Example 94], the IC50 on hP2X3 lay within 1 to 100 nM; on hP2X2/3, 1000 to 10000 nM.

As to `CC(=O)N1CCN(c2nc(NC(C)c3cnc4ccccc4c3)c3nn(C(C)C)c(C)c3n2)CC1` (stereo not shown) [Example 96], the results for the IC50 at hP2X3 and at hP2X2/3 were 1 to 100 nM and more than 10000 nM, respectively.

Regarding `CC(=O)N1CCN(c2nc(N[C@H](C)c3cnc4ccccc4c3)c3nn(C(C)C)c(Br)c3n2)CC1` [Example 98], the concentration for half-maximal inhibition (IC50) on hP2X3 was in the range of 1 to 100 nM; on hP2X2/3, 1000 to 10000 nM.

Consider `CC(=O)N1CCN(c2nc(N[C@H](C)c3cnc4ccccc4c3)c3nn(C(C)C)c(Cl)c3n2)CC1` [Example 99], for which the IC50 on hP2X3 was 1 to 100 nM; at hP2X2/3, 1000 to 10000 nM.

For the molecule `CC(=O)N1CCN(c2nc(N[C@H](C)c3cnc4ccccc4c3)c3c(n2)c(Br)nn3C(C)C)CC1` [Example 100], the IC50 lay within 1 to 100 nM on hP2X3 and 1000 to 10000 nM at hP2X2/3.

As for `CC(=O)N1CCN(c2nc(NC(C)(C)Cc3ccc(Cl)cc3)c3nn(C(C)C)c(C)c3n2)CC1` [Example 101], the results for the IC50 at hP2X3 and on hP2X2/3 were 100 to 1000 nM and 1000 to 10000 nM, respectively.

As for `CC(=O)N1CCN(c2nc(N[C@H](C)c3cnc4ccccc4c3)c3nn(C(C)C)c(C)c3n2)CC1` [Example 102], the IC50 at hP2X3 was 1 to 100 nM; at hP2X2/3, more than 10000 nM.

For `CC(=O)N1CCN(c2nc(N[C@H](C)c3cnc4ccccc4c3)c3nn(C(C)C)c(C#N)c3n2)CC1` [Example 103], the IC50 on hP2X3 was 1 to 100 nM; on hP2X2/3, more than 10000 nM.

Regarding `CC(=O)N1CCN(c2nc(N[C@H](C)c3cnc4ccccc4c3)c3c(n2)c(C#N)nn3C(C)C)CC1` [Example 104], the IC50 at hP2X3 is 1 to 100 nM; on hP2X2/3, more than 10000 nM.

For `CCC(C)n1nc2c(N[C@H](C)c3cnc4ccccc4c3)nc(N3CCN(C(C)=O)CC3)nc2c1Br` (stereo partly shown) [Example 105], the IC50 on hP2X3 was in the range of 1 to 100 nM; on hP2X2/3, 1000 to 10000 nM.

With `CCC(C)n1nc2c(N[C@H](C)c3cnc4ccccc4c3)nc(N3CCN(C(C)=O)CC3)nc2c1C#N` (stereo partly shown) [Example 106], the results for the IC50 at hP2X3 and on hP2X2/3 were 1 to 100 nM and 1000 to 10000 nM, respectively.

`CCC(C)n1ncc2nc(N3CCN(S(N)(=O)=O)CC3)nc(N[C@@H](c3cnc4ccccc4c3)C3CC3)c21` (stereo partly drawn) [Example 108, 4-{1-sec-Butyl-7-[((R)-cyclopropyl-quinolin-3-yl-methyl)-amino]-1H-pyrazolo[4,3-d]pyrimidin-5-yl}-piperazine-1-sulfonic acid amide]: the figures for the IC50 at hP2X3 and on hP2X2/3 were 1 to 100 nM and 1000 to 10000 nM, respectively.

`CCC(C)n1ncc2nc(N3CCN(C(N)=NC#N)CC3)nc(N[C@@H](c3cnc4ccccc4c3)C3CC3)c21` (stereo partly drawn) [Example 110, 4-(1-sec-butyl-7-{[(R)-cyclopropyl(quinolin-3-yl)methyl]amino}-1H-pyrazolo[4,3-d]pyrimidin-5-yl)-N′-cyanopiperazine-1-carboximidamide]: the IC50 on hP2X3 and at hP2X2/3 was 1 to 100 nM throughout.

In the case of `CCC(C)n1ncc2nc(N3CCN(/C(N)=N\C#N)CC3)nc(N[C@H](C)c3cnc4ccccc4c3)c21` (stereo partly drawn) [Example 111, 4-(1-sec-butyl-7-{[(R)-methyl(quinolin-3-yl)methyl]amino}-1H-pyrazolo[4,3-d]pyrimidin-5-yl)-N′-cyanopiperazine-1-carboximidamide], the IC50 on hP2X3 and on hP2X2/3 was 1 to 100 nM throughout.

Regarding `CCC(C)n1ncc2nc(N3CCN(C(=N)N)CC3)nc(N[C@@H](c3cnc4ccccc4c3)C3CC3)c21` (stereo partly drawn) [Example 112, 4-{1-sec-Butyl-7-[((R)-cyclopropyl-quinolin-3-yl-methyl)-amino]-1H-pyrazolo[4,3-d]pyrimidin-5-yl}-piperazine-1-carboxamidine], the IC50 on hP2X3 and at hP2X2/3 was 1 to 100 nM each time.

Turning to `CCC(C)n1ncc2nc(-c3cnn(CCO)c3)nc(N[C@H](C)c3cnc4ccccc4c3)c21` (stereo partly drawn) [Example 113, 2-{4-[1-sec-Butyl-7-((R)-1-quinolin-3-yl-ethylamino)-1H-pyrazolo[4,3-d]pyrimidin-5-yl]-pyrazol-1-yl}-ethanol], the IC50 on hP2X3 was 1 to 100 nM; at hP2X2/3, 1000 to 10000 nM.

`CCC(C)n1ncc2nc(-c3cnn(C)c3)nc(N[C@@H](c3cnc4ccccc4c3)C3CC3)c21` (stereo partly shown) [Example 114]: the concentration for half-maximal inhibition (IC50) on hP2X3 and at hP2X2/3 was 1 to 100 nM throughout.

In the case of `CCC(C)n1ncc2nc(-c3cnn(CC)c3)nc(N[C@@H](c3cnc4ccccc4c3)C3CC3)c21` (stereo partly shown) [Example 115], the IC50 fell in the range of 1 to 100 nM at hP2X3 and 100 to 1000 nM at hP2X2/3.

With `CCC(C)n1ncc2nc(-c3cnn(CCF)c3)nc(N[C@@H](c3cnc4ccccc4c3)C3CC3)c21` (stereo partly shown) [Example 116], the IC50 at hP2X3 and at hP2X2/3 was 1 to 100 nM throughout.

With `Cn1cc(-c2nc(N[C@@H](c3cnc4ccccc4c3)C3CC3)c3c(cnn3C3CCOCC3)n2)cn1` [Example 117], the IC50 on hP2X3 was 1 to 100 nM; at hP2X2/3 it was 1000 to 10000 nM.

On to `CCC(C)n1ncc2nc(C3CCN(C(N)=O)CC3)nc(N[C@@H](c3cnc4ccccc4c3)C3CC3)c21` (stereo partly shown) [Example 118], for which the results for the IC50 at hP2X3 and at hP2X2/3 were 1 to 100 nM and 1000 to 10000 nM, respectively.

As for `CCC(C)n1ncc2nc(-c3cn[nH]c3)nc(N[C@@H](c3cnc4ccccc4c3)C3CC3)c21` (stereo partly shown) [Example 119], the 50% inhibitory concentration (IC50) at hP2X3 lay within 1 to 100 nM; at hP2X2/3 it was 1000 to 10000 nM.

As to `CCC(C)n1ncc2nc(-c3cnn(CCO)c3)nc(N[C@@H](c3cnc4ccccc4c3)C3CC3)c21` (stereo partly shown) [Example 121], the IC50 lay in the range of 1 to 100 nM on hP2X3 and 100 to 1000 nM on hP2X2/3.

For the molecule `CC[C@H](C)n1ncc2nc(-c3cnn(CCF)c3)nc(NC(CO)c3cnc4ccccc4c3)c21` (stereo partly shown) [Example 122], the IC50 on hP2X3 fell in the range of 1 to 100 nM; at hP2X2/3, 100 to 1000 nM.

For `CCC(C)n1ncc2nc(-c3cnn(CCF)c3)nc(N[C@H](C)c3cn4ccc(C)cc4n3)c21` (stereo partly shown) [Example 123], the half-maximal inhibitory concentration (IC50) was 1 to 100 nM at hP2X3; 1000 to 10000 nM and 100 to 1000 nM on hP2X2/3.

For the molecule `CCC(C)n1ncc2nc(C(=O)NC3CC3)nc(N[C@@H](c3cnc4ccccc4c3)C3CC3)c21` (stereo partly drawn) [Example 124, 1-sec-Butyl-7-[((R)-cyclopropyl-quinolin-3-yl-methyl)-amino]-1H-pyrazolo[4,3-d]pyrimidine-5-carboxylic Acid Cyclopropylamide], the IC50 lay in the range of 1 to 100 nM at hP2X3 and 1000 to 10000 nM at hP2X2/3.

Regarding `CCC(C)n1ncc2nc(-c3nnc(C)o3)nc(N[C@@H](c3cnc4ccccc4c3)C3CC3)c21` (stereo partly drawn) [Example 125, [1-sec-Butyl-5-(5-methyl-[1,3,4]oxadiazol-2-yl)-1H-pyrazolo[4,3-d]pyrimidin-7-yl]-((R)-cyclopropyl-quinolin-3-yl-methyl)-amine], the IC50 on hP2X3 was 1 to 100 nM; on hP2X2/3, 1000 to 10000 nM.

Regarding `CCC(C)n1ncc2nc(-n3cc(C(N)=O)nn3)nc(N[C@@H](c3cnc4ccccc4c3)C3CC3)c21` (stereo partly drawn) [Example 126, 1-{1-sec-Butyl-7-[((R)-cyclopropyl-quinolin-3-yl-methyl)-amino]-1H-pyrazolo[4,3-d]pyrimidin-5-yl}-1H-[1,2,3]triazole-4-carboxylic Acid Amide], the IC50 on hP2X3 was 1 to 100 nM; at hP2X2/3, 1000 to 10000 nM.

On to `CCC(C)n1ncc2nc(-c3cccnn3)nc(N[C@@H](c3cnc4ccccc4c3)C3CC3)c21` (stereo partly drawn) [Example 127, (1-sec-Butyl-5-pyridazin-3-yl-1H-pyrazolo[4,3-d]pyrimidin-7-yl)-((R)-cyclopropyl-quinolin-3-yl-methyl)-amine], for which the half-maximal inhibitory concentration (IC50) on hP2X3 is 1 to 100 nM; on hP2X2/3, 1000 to 10000 nM.
